According to the NIST ThermoML archive (doi:10.1021/je100175j):

Key:
[1] = Molar enthalpy of transition or fusion; details: Crystal; DSC
[2] = for Triple point temperature: DTA

CNC(=O)c1ccccc1 [N-methylbenzamide]
Details | Molar enthalpy of transition or fusion [kcal/mol]
[1] | 4.45

[2], Liquid, Closed cell (Static) method
Details | vapor or sublimation pressure [kPa]
322.88 K | 0.00067
324.94 K | 0.00083
326.92 K | 0.00099
328.89 K | 0.00117
330.88 K | 0.0014
332.86 K | 0.00166
334.86 K | 0.00201
336.84 K | 0.00241
338.82 K | 0.00284
340.8 K | 0.00336
342.8 K | 0.00398
344.8 K | 0.0047
346.77 K | 0.00547
348.77 K | 0.0064
350.75 K | 0.00753
352.74 K | 0.00861
354.74 K | 0.01013
356.7 K | 0.01168
358.72 K | 0.01359
360.66 K | 0.01572
362.68 K | 0.01812
364.63 K | 0.02093
366.62 K | 0.02394
368.59 K | 0.0275
370.59 K | 0.03148
372.57 K | 0.03612
374.56 K | 0.04095
376.53 K | 0.04725
378.51 K | 0.05325
380.49 K | 0.06051
382.47 K | 0.06884
384.46 K | 0.07804
386.43 K | 0.08821
388.4 K | 0.101

[2], Crystal
Details | vapor or sublimation pressure [kPa]
324.88 K | 0.0005
326.83 K | 0.00063
328.93 K | 0.0008
330.82 K | 0.00098
332.75 K | 0.00121
334.8 K | 0.00152
336.82 K | 0.00189
338.85 K | 0.00235
340.81 K | 0.00284
342.75 K | 0.00348
344.79 K | 0.00426
345.79 K | 0.00471
346.8 K | 0.00528
347.77 K | 0.00575
348.76 K | 0.00631

Details | Triple point temperature [K]
[2], Crystal | 347.41

CN(C)C(=O)c1ccccc1 [N,N-dimethylbenzamide]
Details | Molar enthalpy of transition or fusion [kcal/mol]
[1] | 5.07

[2], Crystal
Details | vapor or sublimation pressure [kPa]
297.04 K | 0.00054
299.03 K | 0.00069
301.02 K | 0.00086
303.02 K | 0.0011
305 K | 0.00138
307 K | 0.00171
308.98 K | 0.00215
310.98 K | 0.00269
312.98 K | 0.00336
314.98 K | 0.00418

[2], Liquid, Closed cell (Static) method
Details | vapor or sublimation pressure [kPa]
301.98 K | 0.00134
303.99 K | 0.00162
305.97 K | 0.00195
307.96 K | 0.00232
310.43 K | 0.00289
312.3 K | 0.00343
314 K | 0.00399
316 K | 0.00472
317.97 K | 0.0056
319.95 K | 0.00658
321.94 K | 0.00776
323.93 K | 0.00909
325.88 K | 0.01066
327.91 K | 0.01239
329.85 K | 0.01439
331.88 K | 0.01676
333.84 K | 0.01949
335.85 K | 0.02238
337.8 K | 0.02598
339.82 K | 0.02969
341.77 K | 0.03432
343.8 K | 0.03916
345.73 K | 0.04503
347.77 K | 0.05151
349.68 K | 0.05866
351.75 K | 0.06697
353.64 K | 0.07571
355.7 K | 0.08611
357.62 K | 0.09722
359.68 K | 0.1102
361.66 K | 0.1244

Details | Triple point temperature [K]
[2], Crystal | 316.9

NC(=O)c1ccccc1 [benzamide]
Details | Molar enthalpy of transition or fusion [kcal/mol]
[1] | 5.54

[2]
Details | vapor or sublimation pressure [kPa]
324.11 K, Crystal, Calculated from knudsen effusion weight loss | 0.000108
326.19 K, Crystal, Calculated from knudsen effusion weight loss | 0.000136
328.19 K, Crystal, Calculated from knudsen effusion weight loss | 0.000169
330.1 K, Crystal, Calculated from knudsen effusion weight loss | 0.000215
332.16 K, Crystal, Calculated from knudsen effusion weight loss | 0.000267
334.18 K, Crystal, Calculated from knudsen effusion weight loss | 0.000332
336.1 K, Crystal, Calculated from knudsen effusion weight loss | 0.000415
338.17 K, Crystal, Calculated from knudsen effusion weight loss | 0.000513
340.19 K, Crystal, Calculated from knudsen effusion weight loss | 0.000634
342.11 K, Crystal, Calculated from knudsen effusion weight loss | 0.000794
344.18 K, Crystal, Calculated from knudsen effusion weight loss | 0.000981
344.8 K, Crystal, Closed cell (Static) method | 0.0011
346.18 K, Crystal, Calculated from knudsen effusion weight loss | 0.001205
346.78 K, Crystal, Closed cell (Static) method | 0.00135
348.77 K, Crystal, Closed cell (Static) method | 0.00166
350.76 K, Crystal, Closed cell (Static) method | 0.00204
352.74 K, Crystal, Closed cell (Static) method | 0.00247
354.72 K, Crystal, Closed cell (Static) method | 0.00301
356.71 K, Crystal, Closed cell (Static) method | 0.00366
358.69 K, Crystal, Closed cell (Static) method | 0.00438
360.68 K, Crystal, Closed cell (Static) method | 0.00534
362.68 K, Crystal, Closed cell (Static) method | 0.00631
364.64 K, Crystal, Closed cell (Static) method | 0.00769
366.62 K, Crystal, Closed cell (Static) method | 0.00906
368.6 K, Crystal, Closed cell (Static) method | 0.01095
370.59 K, Crystal, Closed cell (Static) method | 0.01299
372.59 K, Crystal, Closed cell (Static) method | 0.01556
374.55 K, Crystal, Closed cell (Static) method | 0.01829
376.53 K, Crystal, Closed cell (Static) method | 0.02177
378.52 K, Crystal, Closed cell (Static) method | 0.02586
380.43 K, Liquid, Closed cell (Static) method | 0.04263
380.48 K, Crystal, Closed cell (Static) method | 0.03068
382.43 K, Liquid, Closed cell (Static) method | 0.0481
382.47 K, Crystal, Closed cell (Static) method | 0.03596
384.38 K, Liquid, Closed cell (Static) method | 0.05455
384.44 K, Crystal, Closed cell (Static) method | 0.04227
386.42 K, Crystal, Closed cell (Static) method | 0.04949
386.56 K, Liquid, Closed cell (Static) method | 0.06285
388.3 K, Liquid, Closed cell (Static) method | 0.0702
388.4 K, Crystal, Closed cell (Static) method | 0.058
390.38 K, Crystal, Closed cell (Static) method | 0.06796
390.51 K, Liquid, Closed cell (Static) method | 0.08051
392.28 K, Liquid, Closed cell (Static) method | 0.0897
392.32 K, Crystal, Closed cell (Static) method | 0.07856
394.32 K, Crystal, Closed cell (Static) method | 0.09224
394.51 K, Liquid, Closed cell (Static) method | 0.102
396.37 K, Liquid, Closed cell (Static) method | 0.1144
398.34 K, Liquid, Closed cell (Static) method | 0.129
400.4 K, Liquid, Closed cell (Static) method | 0.1453
402.25 K, Liquid, Closed cell (Static) method | 0.1597
404.42 K, Liquid, Closed cell (Static) method | 0.1805
406.32 K, Liquid, Closed cell (Static) method | 0.1992
408.4 K, Liquid, Closed cell (Static) method | 0.2257
410.17 K, Liquid, Closed cell (Static) method | 0.2479
412.21 K, Liquid, Closed cell (Static) method | 0.279
414.31 K, Liquid, Closed cell (Static) method | 0.3088
416.23 K, Liquid, Closed cell (Static) method | 0.3462
418.37 K, Liquid, Closed cell (Static) method | 0.3819
420.28 K, Liquid, Closed cell (Static) method | 0.4246
422.2 K, Liquid, Closed cell (Static) method | 0.4667
424.23 K, Liquid, Closed cell (Static) method | 0.5208
426.18 K, Liquid, Closed cell (Static) method | 0.5676
428.17 K, Liquid, Closed cell (Static) method | 0.6262
430.15 K, Liquid, Closed cell (Static) method | 0.6836
432.17 K, Liquid, Closed cell (Static) method | 0.7596
434.17 K, Liquid, Closed cell (Static) method | 0.8264
436.2 K, Liquid, Closed cell (Static) method | 0.922
438.2 K, Liquid, Closed cell (Static) method | 1.002

Details | Triple point temperature [K]
[2], Crystal | 401.34
